From paper PMC10300155, “Inhibition of TRPV4 remodels single cell polarity and suppresses the metastasis of hepatocellular carcinoma” (Cell Death & Disease, 2023)

Legend:
[1] = biological target: T1, TRPV4 (purified, fluorescently labeled) (Homo sapiens, UniProt Q9HBA0); assay: microscale thermophoresis (Monolith NT.[…]); type: binding
T1 construct: purified protein, fluorescently labeled for MST

[2] = biological target: T2, TRPV4 (native, MHCC-97H cells) (Homo sapiens, UniProt Q9HBA0); assay: Fluo-4 AM calcium influx, flow cytometry; type: cell-based; details: inhibitor; 0.5 h pre-treatment; agonist GSK1016790A; adherent MHCC-97H cells
T2 construct: endogenous channel in human hepatocellular carcinoma MHCC-97H cells
T2 sequence (Q9HBA0 whole entry): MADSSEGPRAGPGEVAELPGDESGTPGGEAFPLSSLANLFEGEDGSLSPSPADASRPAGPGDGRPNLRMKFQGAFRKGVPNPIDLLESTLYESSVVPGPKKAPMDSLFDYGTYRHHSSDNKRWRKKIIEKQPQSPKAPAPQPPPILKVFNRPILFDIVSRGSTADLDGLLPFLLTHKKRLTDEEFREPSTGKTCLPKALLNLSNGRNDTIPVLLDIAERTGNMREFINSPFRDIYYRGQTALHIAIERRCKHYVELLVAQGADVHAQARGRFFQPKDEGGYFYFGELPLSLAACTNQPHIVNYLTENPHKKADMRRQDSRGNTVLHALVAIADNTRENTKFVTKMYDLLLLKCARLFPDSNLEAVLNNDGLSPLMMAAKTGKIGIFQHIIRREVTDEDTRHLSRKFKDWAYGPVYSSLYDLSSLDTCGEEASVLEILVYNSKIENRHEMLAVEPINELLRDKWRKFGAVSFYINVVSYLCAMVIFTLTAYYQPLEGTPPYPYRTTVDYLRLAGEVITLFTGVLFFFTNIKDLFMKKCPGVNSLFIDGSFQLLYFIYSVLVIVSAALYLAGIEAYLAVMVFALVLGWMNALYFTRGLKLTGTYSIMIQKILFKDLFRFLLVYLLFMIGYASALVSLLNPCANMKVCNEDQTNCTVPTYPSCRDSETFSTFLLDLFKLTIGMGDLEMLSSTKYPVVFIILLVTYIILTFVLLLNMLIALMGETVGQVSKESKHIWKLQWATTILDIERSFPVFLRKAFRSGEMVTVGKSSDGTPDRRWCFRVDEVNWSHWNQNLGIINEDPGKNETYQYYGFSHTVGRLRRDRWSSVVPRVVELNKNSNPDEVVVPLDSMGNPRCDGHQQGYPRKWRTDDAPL

T1 sequence (Q9HBA0 whole entry): as above

COc1c(OCCCCN2CCCC2)cc(O)c2c(=O)cc(-c3ccccc3)oc12 [GL-V9, 5-hydroxy-8-methoxy-2-phenyl-7-(4-(pyrro-lidin-1-yl)butoxy)4H-chromen-4-one]
Kd [1]: 106 nM
Fluo-4 AM calcium influx, flow cytometry [2]: substantially reduced the calcium influx brought on by GSK1016790A
